Data published in ChEMBL document CHEMBL5247658, “Development of Fluorescent 4-[4-(3H-Spiro[isobenzofuran-1,4'-piperidin]-1'-yl)butyl]indolyl Derivatives as High-Affinity Probes to Enable the Study of σ Receptors via Fluorescence-Based Techniques” (J Med Chem, 2023).
Blank lines part the entries; values can stand above or below the compound they belong to.

What was measured:
[1] = target: T1, Sigma intracellular receptor 2 (Rattus norvegicus, UniProt Q5U3Y7); test: Displacement of [3H]RHM-1 from sigma 2 receptor in Wistar Han rat liver membrane assessed as inhibition constant by competitive binding assay; assay type: cell membranes
T1 sequence (Q5U3Y7 whole entry): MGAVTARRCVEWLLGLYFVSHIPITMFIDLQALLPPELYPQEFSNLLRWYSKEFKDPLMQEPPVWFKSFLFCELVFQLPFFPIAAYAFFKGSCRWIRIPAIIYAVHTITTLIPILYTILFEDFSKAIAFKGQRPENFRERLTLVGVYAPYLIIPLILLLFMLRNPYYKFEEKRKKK

[2] = target: T2, Sigma non-opioid intracellular receptor 1 (Cavia porcellus, UniProt Q60492); test: Displacement of [3H](+)-pentazocine from sigma 1 receptor in guinea pig brain membranes assessed as inhibition constant by Wallac 1450 MicroBeta liquid scintillation counter; assay type: cell membranes, Membrane
[3] = Drug accumulation in human MCF7 cells assessed as increase in mean fluorescence intensity pretreated with (+)-pentazocine for 60 mins followed by compound addition incubated for 45 mins by flow cytometric analysis; assay type: ADME, cell-based; details: mcf7, 0.75 h, dose 0.01-1 µM
[4] = target: T3, Sigma intracellular receptor 2 (Homo sapiens, UniProt Q5BJF2); test: Binding affinity to sigma 2 receptor (unknown origin) assessed as inhibition constant
[5] = target: Sigma non-opioid intracellular receptor 1 (Homo sapiens, UniProt Q99720); test: Binding affinity to sigma 1 receptor (unknown origin) assessed as inhibition constant
[6] = target: T3, Sigma intracellular receptor 2; test: Binding affinity to sigma 2 receptor in human MCF7 cells assessed as increase in fluorescent intensity pretreated with (+)-pentazocine for 60 mins followed by compound addition incubated for 45 mins by flow cytometric analysis; assay type: cell-based; details: dose 0.01-1 µM
[7] = Drug accumulation in human MCF7 TMEM97 knock out cells assessed as increase in mean fluorescence intensity pretreated with (+)-pentazocine for 60 mins followed by compound addition incubated for 45 mins by flow cytometric analysis; assay type: ADME, cell-based; details: mcf7, 0.75 h, dose 0.01-1 µM
[8] = Drug uptake in human MCF7 cells expressing sigma 1 receptor assessed as increase in fluorescence intensity in presence of (+)-pentazocine incubated at 1 to 10000 nM for 45 mins by flow cytometric analysis; assay type: ADME, cell-based; details: mcf7, 0.75 h, 10 µM, dose 1-10000 nM
[9] = target: T2, Sigma non-opioid intracellular receptor 1; test: Displacement of [3H](+)-pentazocine from sigma 1 receptor in guinea pig brain membranes assessed as inhibition constant by competitive binding assay; assay type: cell membranes, Membrane
[10] = target: T1, Sigma intracellular receptor 2; test: Displacement of [3H]DTG from sigma 2 receptor in Wistar Han rat liver membrane assessed as inhibition constant by competitive binding assay; assay type: cell membranes

T3 sequence (Q5BJF2 whole entry): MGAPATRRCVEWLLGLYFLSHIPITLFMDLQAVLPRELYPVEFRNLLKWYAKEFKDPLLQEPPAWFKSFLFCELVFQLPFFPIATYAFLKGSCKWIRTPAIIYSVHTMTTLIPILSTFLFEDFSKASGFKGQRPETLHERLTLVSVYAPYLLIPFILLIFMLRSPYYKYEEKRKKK
T2 sequence (Q60492 whole entry): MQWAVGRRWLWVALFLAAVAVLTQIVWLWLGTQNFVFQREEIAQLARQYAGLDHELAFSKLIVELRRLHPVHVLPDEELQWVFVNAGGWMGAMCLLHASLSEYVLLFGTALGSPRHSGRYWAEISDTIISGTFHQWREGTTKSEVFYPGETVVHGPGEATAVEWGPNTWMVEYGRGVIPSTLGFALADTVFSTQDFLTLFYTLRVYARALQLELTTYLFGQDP
Chain of Sigma non-opioid intracellular receptor 1 (Homo sapiens, UniProt Q99720) (Q99720 whole entry): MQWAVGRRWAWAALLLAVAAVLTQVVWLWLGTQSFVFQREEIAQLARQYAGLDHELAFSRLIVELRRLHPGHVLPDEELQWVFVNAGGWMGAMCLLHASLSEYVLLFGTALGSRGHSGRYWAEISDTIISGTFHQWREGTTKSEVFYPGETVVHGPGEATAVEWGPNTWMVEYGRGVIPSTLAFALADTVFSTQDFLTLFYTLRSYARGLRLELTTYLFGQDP

- Ki [1]: 14 nM
- Ki [2]: 1.05 nM
Structure (SMILES): COc1ccc(C)cc1NC(=O)OC1C[C@H]2CCC[C@@H](C1)N2CCCCCCCCCCS(=O)(=O)c1cccc2c(N(C)C)cccc12 (some centres not stated)

- Ki [4]: 17.9 nM
- Ki [5]: 0.03 nM
Structure (SMILES): CC1CCN(CCCCc2cccc3cc(OCCCCCCN4C(=O)c5ccc(N(C)C)cc5C4=O)ccc23)CC1

The next lines start with the compound.

Structure (SMILES): C[N+]1=C(/C=C/C=C/C=C2/N(CCCCCC(=O)Nc3ccc4ccn(CCCCN5CCC6(CC5)OCc5ccccc56)c4c3)c3ccccc3C2(C)C)C(C)(C)c2ccccc21.[I-]
- Drug uptake [3]: Dose-Dependent Effect

Structure (SMILES): CN(C)c1ccc2c(c1)C(=O)N(Oc1cccc3c1CCCC3CCCN1CCN(C3CCCCC3)CC1)C2=O (configuration not stated)
- Ki [4]: 6.9 nM

Structure (SMILES): C[N+]1=C(/C=C/C=C/C=C2\N(CCCCCC(=O)NCCCCCCn3cc(CCCCN4CCC5(CC4)OCc4ccccc45)c4ccccc43)c3ccccc3C2(C)C)C(C)(C)c2ccccc21.[I-]
- Activity [6]: Dose-Dependent Effect
- Drug uptake [7]: Dose-Dependent Effect
- Drug uptake [8]: Not Active
- Drug uptake [3]: Dose-Dependent Effect

Structure (SMILES): COc1cc2c(cc1OC)CN(CCCN1CCc3c(OCCCCCCN4C(=O)c5ccc(N(C)C)cc5C4=O)cccc3C1=O)CC2
- Ki [9]: > 5000 nM
- Ki [10]: 10.2 nM
